Reference: patent US20140128385A1 (NOVARTIS AG, priority 2011, published 2014)
Counter-ions that a name gives are not always drawn.

Target: T1, BACE-2 (Homo sapiens, UniProt Q9Y5Z0)
T1 construct: Recombinant BACE-2 (extracellular domain, expressed in baculovirus and purified using standard methods); made in house
T1 sequence (Q9Y5Z0 63-473 limits assumed): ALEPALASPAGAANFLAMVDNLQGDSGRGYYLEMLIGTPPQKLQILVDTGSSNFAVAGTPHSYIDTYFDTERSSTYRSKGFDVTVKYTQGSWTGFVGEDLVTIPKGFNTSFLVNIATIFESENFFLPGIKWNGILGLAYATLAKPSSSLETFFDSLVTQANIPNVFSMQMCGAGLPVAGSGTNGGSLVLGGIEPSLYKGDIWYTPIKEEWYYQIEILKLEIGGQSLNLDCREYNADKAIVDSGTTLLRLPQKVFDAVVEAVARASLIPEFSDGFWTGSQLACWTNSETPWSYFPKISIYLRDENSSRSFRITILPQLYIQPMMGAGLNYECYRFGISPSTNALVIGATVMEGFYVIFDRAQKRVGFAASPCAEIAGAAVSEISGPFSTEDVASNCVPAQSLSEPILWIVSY
Experiment: assay for inhibition of BACE-2
Assay type: biochemical

| SMILES | IC50 [nM] |
| --- | --- |
| [2H]C([2H])([2H])Oc1cnc(C(=O)Nc2ccc(F)c([C@]3(C(F)F)COCC(N)=N3)c2)c(C)c1 [Example 227] | 64 |
| CC1(c2cccc(NC(=O)c3cnc(-n4ccc(C(F)(F)F)n4)cn3)c2)COCC(N)=N1 (stereo not drawn) [Example 15, 5-(3-Trifluoromethyl-pyrazol-1-yl)-pyrazine-2-carboxylic acid [3-(5-amino-3-methyl-3,6-dihydro-2H-[1,4]oxazin-3-yl)-phenyl]-amide hydrochloride] | 6590 |
| Cc1cc(F)cnc1C(=O)Nc1ccc(F)c([C@]2(C)CO[C@@](C)(C(F)(F)F)C(N)=N2)c1 [Example 249, 5-Fluoro-3-methyl-pyridine-2-carboxylic acid [3-((3R,6R)-5-amino-3,6-dimethyl-6-trifluoro-methyl-3,6-dihydro-2H-[1,4]oxazin-3-yl)-4-fluoro-phenyl]-amide] | 3 |
| N#Cc1cnc(C(=O)Nc2ccc(F)c([C@]3(C(F)F)COCC(N)=N3)c2)c(Cl)c1 [Example 216] | 61 |
| NC1=N[C@@](c2cc(NC(=O)c3ncc(C(F)F)cc3N)ccc2F)(C(F)F)COC1 [Example 226] | 90 |
| CC1(c2cccc(NC(=O)c3ccco3)c2)COCC(N)=N1 (stereo not drawn) [Example 1, Furan-2-carboxylic acid [3-(5-amino-3-methyl-3,6-dihydro-2H-[1,4]oxazin-3-yl)-phenyl]-amide hydrochloride] | 61 |
| COc1ccc(C(=O)Nc2cccc([C@]3(C)CO[C@@](C)(C(F)(F)F)C(N)=N3)c2)nc1 [Example 67] | 27 |
| Cc1cc(C(=O)Nc2ccc(F)c([C@]3(C(F)F)COCC(N)=N3)c2)n[nH]1 [Example 142] | 522 |
| C[C@@]1(c2cc(NC(=O)c3ncc(Cl)cc3N)ccc2F)CO[C@@](C)(C(F)(F)F)C(N)=N1 [Example 153, 3-Amino-5-chloro-pyridine-2-carboxylic acid [3-((3R,6R)-5-amino-3,6-dimethyl-6-trifluoromethyl-3,6-dihydro-2H-[1,4]oxazin-3-yl)-4-fluoro-phenyl]-amide hydrochloride] | 3 |
| CCN1CC(C)(c2cc(NC(=O)c3ncc(Cl)cc3Cl)ccc2F)N=C(N)C1=O (stereo not drawn) [Example 193, 3,5-Dichloro-pyridine-2-carboxylic acid [3-(6-amino-4-ethyl-2-methyl-5-oxo-2,3,4,5-tetrahydro-pyrazin-2-yl)-4-fluoro-phenyl]-amide hydrochloride] | 8 |
| Cc1cc(C#N)cnc1C(=O)Nc1ccc(F)c([C@]2(CF)COC(CF)(CF)C(N)=N2)c1 [Example 256, 5-Cyano-3-methyl-pyridine-2-carboxylic acid [3-((R)-5-amino-3,6,6-tris-fluoromethyl-3,6-dihydro-2H-[1,4]oxazin-3-yl)-4-fluoro-phenyl]-amide] | 18 |
| CC1(c2cc(NC(=O)c3ncc(C(F)(F)F)cc3Cl)ccc2F)N=C(N)COCC1(F)F (stereo not drawn) [Example 154, 3-Chloro-5-trifluoromethyl-pyridine-2-carboxylic acid [3-(3-amino-6,6-difluoro-5-methyl-2,5,6,7-tetrahydro-[1,4]oxazepin-5-yl)-4-fluoro-phenyl]-amide] | 408 |
| COCc1cnc(C(=O)Nc2ccc(F)c([C@]3(C(F)F)COCC(N)=N3)c2)c(Cl)c1 [Example 183, 3-Chloro-5-methoxymethyl-pyridine-2-carboxylic acid [3-((R)-5-amino-3-di-fluoromethyl-3,6-dihydro-2H-[1,4]oxazin-3-yl)-4-fluoro-phenyl]-amide hydrochloride] | 4940 |
| Cc1cc(Cl)cnc1C(=O)Nc1ccc(F)c([C@]2(C)CO[C@@](C)(C(F)(F)F)C(N)=N2)c1 [Example 234, 5-Chloro-3-methyl-pyridine-2-carboxylic acid [3-((3R,6R)-5-amino-3,6-dimethyl-6-trifluoromethyl-3,6-dihydro-2H-[1,4]oxazin-3-yl)-4-fluoro-phenyl]-amide hydrochloride] | 2 |
| COc1cnc(C(=O)Nc2ccc(F)c([C@]3(C(F)F)COCC(N)=N3)c2)c(Cl)c1 [Example 161, 3-Chloro-5-methoxy-pyridine-2-carboxylic acid [3-((R)-5-amino-3-difluoromethyl-3,6-dihydro-2H-[1,4]oxazin-3-yl)-4-fluoro-phenyl]-amide] | 82 |
| C#CCOc1cnc(C(=O)Nc2ccc(F)c([C@]3(C)CO[C@@](C)(C(F)(F)F)C(N)=N3)c2)c(N)n1 [Example 239] | 15 |
| COCCOc1cnc(C(=O)Nc2ccc(F)c([C@]3(C(F)F)COCC(N)=N3)c2)c(F)c1 [Example 181, 3-Fluoro-5-(2-methoxy-ethoxy)-pyridine-2-carboxylic acid [3-((R)-5-amino-3-difluoromethyl-3,6-dihydro-2H-[1,4]oxazin-3-yl)-4-fluoro-phenyl]-amide hydrochloride] | 6080 |
| Cc1nc(C(=O)Nc2cccc(C3(C(F)F)COCC(N)=N3)c2)c(C)o1 (stereo not drawn) [Example 106] | 1040 |

| SMILES | IC50 [nM] |
| --- | --- |
| NC1=NC(CF)(c2cc(Cl)cc(NC(=O)c3ccc(Br)cn3)c2)COC1 (stereo not drawn) [Example 32] | 1020 |
| Cc1nc(C(=O)Nc2cccc(C3(C)COCC(N)=N3)c2)cs1 (stereo not drawn) [Example 11, 2-Methyl-thiazole-4-carboxylic acid [3-(5-amino-3-methyl-3,6-dihydro-2H-[1,4]oxazin-3-yl)-phenyl]-amide hydrochloride] | 1060 |
| CN1CC(C)(c2cc(NC(=O)c3ccc(Cl)cn3)ccc2F)N=C(N)C1=O (stereo not drawn) [Example 190, 5-Chloro-pyridine-2-carboxylic acid [3-(6-amino-2,4-dimethyl-5-oxo-2,3,4,5-tetrahydro-pyrazin-2-yl)-4-fluoro-phenyl]-amide hydrochloride] | 35 |
| Cn1cc(N2CC(C)(c3cc(NC(=O)c4ccc(Br)cn4)ccc3F)N=C(N)C2=O)cn1 (stereo not drawn) [Example 197, 5-Bromo-pyridine-2-carboxylic acid {3-[6-amino-2-methyl-4-(1-methyl-1H-pyrazol-4-yl)-5-oxo-2,3,4,5-tetrahydro-pyrazin-2-yl]-4-fluoro-phenyl}-amide hydrochloride] | 18 |
| COCCOc1cnc(C(=O)Nc2ccc(F)c([C@]3(C(F)F)COCC(N)=N3)c2)c(N)n1 [Example 158, 3-Amino-5-(2-methoxy-ethoxy)-pyrazine-2-carboxylic acid [3-((R)-5-amino-3-difluoromethyl-3,6-dihydro-2H-[1,4]oxazin-3-yl)-4-fluoro-phenyl]-amide] | 3380 |
| NC1=N[C@@](c2cc(NC(=O)c3ccc(O)nn3)ccc2F)(C(F)F)COC1 [Example 134] | 844 |
| CC1(c2cccc(NC(=O)c3ccccn3)c2)COCC(N)=N1 (stereo not drawn) [Example 13, Pyridine-2-carboxylic acid [3-(5-amino-3-methyl-3,6-dihydro-2H-[1,4]oxazin-3-yl)-phenyl]-amide hydrochloride] | 431 |
| Cc1cc(Cl)cnc1C(=O)Nc1ccc(F)c([C@]2(C(F)F)COCC(N)=N2)c1 [Example 44] | 5 |
| Cc1cc(Cl)cnc1C(=O)Nc1ccc(F)c([C@]2(CF)COCC(N)=N2)c1 [Example 92] | 0.4 |
| [2H]c1nc(C(=O)Nc2cccc(C3(CF)COCC(N)=N3)n2)c(C([2H])([2H])[2H])c([2H])c1Cl (stereo not drawn) [Example 262, 5-{6-[(4,6-Dideutero-5-chloro-3-trideuteromethyl-pyridine-2-carbonyl)-amino]-pyridin-2-yl}-5-fluoromethyl-5,6-dihydro-2H-[1,4]oxazin-3-yl-ammonium trifluoro acetate] | 242 |
| N#Cc1ccc(C(=O)Nc2ccc(F)c([C@]3(C(F)F)COCC(N)=N3)c2)nc1 [Example 112, 5-Cyano-pyridine-2-carboxylic acid [3-((R)-5-amino-3-difluoromethyl-3,6-dihydro-2H-[1,4]oxazin-3-yl)-4-fluoro-phenyl]-amide hydrochloride] | 97 |
| C#CCOc1cnc(C(=O)Nc2ccc(F)c([C@]3(C(F)F)COCC(N)=N3)c2)cn1 [Example 167, 5-Prop-2-ynyloxy-pyrazine-2-carboxylic acid [3-((R)-5-amino-3-difluoromethyl-3,6-dihydro-2H-[1,4]oxazin-3-yl)-4-fluoro-phenyl]-amide hydrochloride] | 172 |
| C[C@@]1(c2cc(NC(=O)c3ncc(C(F)F)nc3N)ccc2F)CO[C@@](C)(C(F)(F)F)C(N)=N1 [Example 242, 3-Amino-5-difluoromethyl-pyrazine-2-carboxylic acid [3-((3R,6R)-5-amino-3,6-dimethyl-6-trifluoromethyl-3,6-dihydro-2H-[1,4]oxazin-3-yl)-4-fluoro-phenyl]-amide] | 11 |
| Cc1cc(OCF)cnc1C(=O)Nc1ccc(F)c([C@]2(C(F)F)COCC(N)=N2)c1 [Example 177, 5-Fluoromethoxy-3-methyl-pyridine-2-carboxylic acid [3-((R)-5-amino-3-difluoromethyl-3,6-dihydro-2H-[1,4]oxazin-3-yl)-4-fluoro-phenyl]-amide hydrochloride] | 37 |
| NC1=N[C@@](c2cc(NC(=O)c3ncc(C(F)F)nc3N)ccc2F)(C(F)F)COC1 [Example 220] | 116 |
| NC1=NC(c2cc(NC(=O)c3ncc(Br)cc3O)c(F)cc2F)(C(F)F)COC1 (stereo not drawn) [Example 84] | 3440 |
| [2H]C([2H])([2H])OCc1cc(OC([2H])([2H])[2H])cnc1C(=O)Nc1ccc(F)c([C@]2(C(F)F)COCC(N)=N2)c1 [Example 224] | 103 |
| NC1=NC(c2cccc(NC(=O)c3ccc(Cl)cn3)c2)(C(F)F)COC1 (stereo not drawn) [Example 35] | 139 |
